Assay results from patent US5324648A, “Substituted isocoumarins as serine protease inhibitors and anti-inflammatory agents” (Georgia Tech Research Corporation, priority 1992, dated 1994).
Structures can show the parent of a compound that is named as a salt.

Columns and labels:
[1] = target: T1, bovine thrombin (Bos taurus, UniProt P00735); experiment: Inactivation rate of bovine thrombin; format: biochemical; settings: Table I; pH 7.5, 25° C; [I] 0.3 to 400 μM; read-out: kobs/[I]
T1 construct: bovine thrombin
Method: (§1) Inactivation rates of serine proteases by substituted isocoumarins were measured by the incubation method. An aliquot of inhibitor (25 or 50 μl) in Me2 SO was added to a buffered enzyme solution (0.01-2.3 μM) to initiate the inactivation. Aliquots (50 μl) were withdrawn at various intervals and the residual enzymatic activity was measured. Me2 SO concentration in the reaction mixture was 8-12% (v/v). 0.1 Hepes, 0.01M CaCl2, pH 7.5 buffer was utilized for trypsin and coagulation enzymes. 0.1M Hepes, 0.5M NaCl, pH 7.5 was utilized for other serine proteases. The inhibitor concentrations are shown in all the tables. Peptide thioesters or peptide nitroanilides with appropriate sequence were used as substrates for various serine proteases. All peptide thioester hydrolysis rates were measured with assay mixtures containing 4,4'-dithiodipyridine (ε324 =19800M^-1 cm^-1; Grasetti & Murray, Arch. Biochem. Biophys. 119, pp 41-49 (1967)). Peptide 4-nitroanilide nitroanilide hydrolysis was measured at 410 nm (ε410 =8800M^-1 cm^-1; Erlanger et al., Arch. Biochem. Biophys. 95, pp 271-278 (1961)). First order inactivation rate constant (kobs) were obtained from plots of ln (vt /vo) vs time, and the correlation coefficients were greater than 0.98.
(§2) ^a Conditions were as 0.1M Hepes, 0.01M CaCl2, pH 7.5 and 8-12%
(§3) Me2 SO and 25° C. Rate constants were measured by incubation
(§4) method unless otherwise noted. An aliquot of inhibitor was added to an
(§5) enzyme solution and aliquots removed with time and assayed for remaining
(§6) enzymatic activity. Firstorder rate constants, kobs were obtained
(§7) from the plots of ln(vt /vo) versus time.
(§8) ^a Inhibition rates were measured in 0.1M Hepes, 0.01M CaCl2, pH
(§9) 7.5 buffer, 8% Me2 SO and at 25° C.

[2] = target: T2, porcine pancreatic kallikrein (Sus scrofa, UniProt P00752); experiment: Inactivation rate of porcine pancreatic kallikrein; format: biochemical; settings: Table I; pH 7.5, 25° C; [I] 0.4 to 300 μM; read-out: kobs/[I]
T2 construct: from tissue; host or cells: porcine pancreas (from the name)
T2 sequence (P00752 8-246): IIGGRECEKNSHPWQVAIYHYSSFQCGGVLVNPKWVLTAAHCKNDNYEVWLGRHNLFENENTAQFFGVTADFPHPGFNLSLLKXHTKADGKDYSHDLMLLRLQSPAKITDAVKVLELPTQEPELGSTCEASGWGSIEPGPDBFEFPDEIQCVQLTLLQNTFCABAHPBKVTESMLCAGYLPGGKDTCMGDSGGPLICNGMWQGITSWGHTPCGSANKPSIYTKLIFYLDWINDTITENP

[3] = target: T3, human plasma kallikrein (Homo sapiens, UniProt P03952); experiment: Inactivation rate of human plasma kallikrein; format: biochemical; settings: Table I; pH 7.5, 25° C; [I] 3 to 330 μM (footnote g); read-out: kobs/[I]
T3 construct: human plasma kallikrein; from tissue; host or cells: human plasma (from the name)
T3 sequence (P03952 391-638 limits assumed): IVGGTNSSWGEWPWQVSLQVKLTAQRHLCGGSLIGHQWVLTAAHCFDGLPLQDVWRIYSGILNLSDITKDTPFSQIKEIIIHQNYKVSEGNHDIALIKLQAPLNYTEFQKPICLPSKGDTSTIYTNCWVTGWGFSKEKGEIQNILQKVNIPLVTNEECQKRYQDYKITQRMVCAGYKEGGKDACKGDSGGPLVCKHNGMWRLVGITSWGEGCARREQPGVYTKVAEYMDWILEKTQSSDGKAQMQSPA
T3 sequence (P03952 20-390 partner limits assumed): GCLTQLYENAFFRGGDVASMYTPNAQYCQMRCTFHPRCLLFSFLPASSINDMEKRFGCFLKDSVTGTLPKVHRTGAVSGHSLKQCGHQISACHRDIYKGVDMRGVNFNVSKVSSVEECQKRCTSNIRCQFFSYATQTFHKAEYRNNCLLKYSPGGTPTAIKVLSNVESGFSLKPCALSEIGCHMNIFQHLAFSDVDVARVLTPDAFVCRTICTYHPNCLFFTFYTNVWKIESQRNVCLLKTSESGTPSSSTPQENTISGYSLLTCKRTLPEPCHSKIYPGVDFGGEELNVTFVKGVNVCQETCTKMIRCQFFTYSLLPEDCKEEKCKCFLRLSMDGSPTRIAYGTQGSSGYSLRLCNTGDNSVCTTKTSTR
Method: as §1, §2, §3, §4, §5, §6, §7

[4] = target: T4, human factor XIa (Homo sapiens, UniProt P03951); experiment: Inactivation rate of human factor XIa; format: biochemical; settings: Table I; pH 7.5, 25° C; [I] 3 to 330 μM; read-out: kobs/[I]
T4 construct: human factor XIa
T4 sequence (P03951 388-625 limits assumed): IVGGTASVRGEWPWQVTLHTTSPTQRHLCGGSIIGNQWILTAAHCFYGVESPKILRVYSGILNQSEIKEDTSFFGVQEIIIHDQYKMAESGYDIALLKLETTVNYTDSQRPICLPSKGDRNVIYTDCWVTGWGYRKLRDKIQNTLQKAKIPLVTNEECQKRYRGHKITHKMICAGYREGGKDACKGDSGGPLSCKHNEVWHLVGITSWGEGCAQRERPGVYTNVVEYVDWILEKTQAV
T4 sequence (P03951 19-387 partner limits assumed): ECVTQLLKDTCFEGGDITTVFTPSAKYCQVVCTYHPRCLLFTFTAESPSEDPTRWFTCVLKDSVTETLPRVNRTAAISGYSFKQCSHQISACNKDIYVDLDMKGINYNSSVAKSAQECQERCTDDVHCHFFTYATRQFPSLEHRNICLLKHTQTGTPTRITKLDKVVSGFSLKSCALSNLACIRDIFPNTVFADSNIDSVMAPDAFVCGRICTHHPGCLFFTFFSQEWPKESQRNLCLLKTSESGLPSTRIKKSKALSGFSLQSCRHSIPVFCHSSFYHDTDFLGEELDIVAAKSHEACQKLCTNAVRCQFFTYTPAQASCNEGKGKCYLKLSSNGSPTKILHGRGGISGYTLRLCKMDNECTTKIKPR
Method: as §1, §2, §3, §4, §5, §6, §7, §8, §9

[5] = target: T5, human factor XIIa (Homo sapiens, UniProt P00748); experiment: Inactivation rate of human factor XIIa; format: biochemical; settings: Table I; pH 7.5, 25° C; [I] 3 to 330 μM; read-out: kobs/[I]
T5 construct: human factor XIIa
T5 sequence (P00748 373-615 limits assumed): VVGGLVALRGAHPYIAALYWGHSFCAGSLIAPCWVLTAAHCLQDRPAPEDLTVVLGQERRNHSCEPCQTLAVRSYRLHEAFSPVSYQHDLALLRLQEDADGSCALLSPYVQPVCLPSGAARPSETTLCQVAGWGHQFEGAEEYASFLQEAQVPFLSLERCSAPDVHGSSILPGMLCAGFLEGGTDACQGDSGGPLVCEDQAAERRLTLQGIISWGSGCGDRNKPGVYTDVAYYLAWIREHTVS
T5 sequence (P00748 20-372 partner limits assumed): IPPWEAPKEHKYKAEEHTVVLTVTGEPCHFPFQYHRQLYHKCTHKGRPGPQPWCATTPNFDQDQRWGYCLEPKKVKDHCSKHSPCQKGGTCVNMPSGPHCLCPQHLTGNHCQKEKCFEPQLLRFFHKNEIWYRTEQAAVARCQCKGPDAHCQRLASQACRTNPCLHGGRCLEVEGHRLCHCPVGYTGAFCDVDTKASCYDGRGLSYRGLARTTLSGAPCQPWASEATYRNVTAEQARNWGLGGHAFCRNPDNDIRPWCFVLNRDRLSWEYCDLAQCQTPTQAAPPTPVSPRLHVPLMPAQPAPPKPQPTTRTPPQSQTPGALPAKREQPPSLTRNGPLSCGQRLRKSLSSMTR
Method: as §1, §2, §3, §4, §5, §6, §7, §8, §9

[6] = target: T6, bovine trypsin (Bos taurus, UniProt P00760); experiment: Inactivation rate of bovine trypsin; format: biochemical; settings: Table I; pH 7.5, 25° C; [I] 1 to 12 μM; read-out: kobs/[I]
T6 sequence (P00760 24-246): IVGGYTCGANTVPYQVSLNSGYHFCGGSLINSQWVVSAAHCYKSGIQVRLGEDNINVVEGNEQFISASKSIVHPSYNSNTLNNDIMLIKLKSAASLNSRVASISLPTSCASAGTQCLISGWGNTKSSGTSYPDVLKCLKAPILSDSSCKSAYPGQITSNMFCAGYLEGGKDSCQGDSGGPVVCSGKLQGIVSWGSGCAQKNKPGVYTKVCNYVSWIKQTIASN
Method: as §1, §2, §3, §4, §5, §6, §7, §8, §9

[7] = target: sheep lung lymph tryptase; experiment: Inactivation rate of sheep lung lymph tryptase; format: biochemical; settings: Table III; pH 7.5, 25° C; [I] 10 to 460 μM
Method: Inactivation rates of serine proteases by substituted isocoumarins were measured by the incubation method. An aliquot of inhibitor (25 or 50 μl) in Me2 SO was added to a buffered enzyme solution (0.01-2.3 μM) to initiate the inactivation. Aliquots (50 μl) were withdrawn at various intervals and the residual enzymatic activity was measured. […] 0.1 Hepes, 0.01M CaCl2, pH 7.5 buffer was utilized for trypsin and coagulation enzymes. […] The inhibitor concentrations are shown in all the tables. Peptide thioesters or peptide nitroanilides with appropriate sequence were used as substrates for various serine proteases.
^a Inactivation rates were measured at 0.1M Hepes, 0.5M NaCl, pH 7.5
buffer, 8% Me2 SO and 25° C.

[8] = target: T7, porcine pancreatic elastase (PPE) (Sus scrofa, UniProt P00772); experiment: Inactivation of porcine pancreatic elastase (PPE); format: biochemical; settings: Table IV; pH 7.5, 25° C; [I] 0.01 to 0.51 mM; read-out: kobs/[I]
T7 construct: from tissue; host or cells: porcine pancreas (from the name)
T7 sequence (P00772 27-266): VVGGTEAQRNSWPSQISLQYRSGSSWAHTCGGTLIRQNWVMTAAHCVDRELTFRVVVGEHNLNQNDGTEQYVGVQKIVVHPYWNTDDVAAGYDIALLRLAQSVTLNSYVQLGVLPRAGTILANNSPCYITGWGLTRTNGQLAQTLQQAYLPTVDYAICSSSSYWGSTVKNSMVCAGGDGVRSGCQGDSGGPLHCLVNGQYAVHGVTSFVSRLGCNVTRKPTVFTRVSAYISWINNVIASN

[9] = target: T8, human leukocyte elastase (HLE) (Homo sapiens, UniProt P08246); experiment: Inactivation of human leukocyte elastase (HLE); format: biochemical; settings: Table IV; pH 7.5, 25° C; [I] 0.001 to 0.18 mM; read-out: kobs/[I]
T8 construct: from tissue; host or cells: human leukocytes (from the name)
T8 sequence (P08246 30-267): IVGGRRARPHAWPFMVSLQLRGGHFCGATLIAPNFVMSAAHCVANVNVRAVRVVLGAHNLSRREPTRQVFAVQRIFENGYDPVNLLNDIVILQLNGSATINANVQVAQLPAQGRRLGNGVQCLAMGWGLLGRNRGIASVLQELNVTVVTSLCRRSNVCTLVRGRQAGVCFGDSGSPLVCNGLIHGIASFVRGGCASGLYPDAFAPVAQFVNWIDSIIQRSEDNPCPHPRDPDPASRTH

[10] = target: chymotrypsin (Bos taurus, UniProt P00766); experiment: Inactivation of chymotrypsin; format: biochemical, bovine; settings: Table IV; pH 7.5, 25° C; [I] 0.004 to 0.33 mM; read-out: kobs/[I]
[11] = target: T9, cathepsin G (Homo sapiens, UniProt P08311); experiment: Inactivation of cathepsin G; format: biochemical; settings: Table IV; pH 7.5, 25° C; [I] 0.002 to 0.35 mM; read-out: kobs/[I]
T9 construct: from tissue; host or cells: human leukocytes
T9 sequence (P08311 21-255): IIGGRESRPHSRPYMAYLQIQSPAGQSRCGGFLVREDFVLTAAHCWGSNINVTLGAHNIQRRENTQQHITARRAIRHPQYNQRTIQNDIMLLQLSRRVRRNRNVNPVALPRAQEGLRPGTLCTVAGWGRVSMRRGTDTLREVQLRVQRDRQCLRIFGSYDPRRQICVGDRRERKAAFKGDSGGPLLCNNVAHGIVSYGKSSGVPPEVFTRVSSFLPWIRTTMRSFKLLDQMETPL

[12] = target: T10, human plasmin (Homo sapiens, UniProt P00747); experiment: Inactivation rate of human plasmin; format: biochemical; settings: Table VI; pH 7.5, 25° C; [I] 4 to 330 μM; read-out: kobs/[I]
T10 construct: human plasmin; from tissue; host or cells: human plasma
T10 sequence (P00747 581-810 limits assumed): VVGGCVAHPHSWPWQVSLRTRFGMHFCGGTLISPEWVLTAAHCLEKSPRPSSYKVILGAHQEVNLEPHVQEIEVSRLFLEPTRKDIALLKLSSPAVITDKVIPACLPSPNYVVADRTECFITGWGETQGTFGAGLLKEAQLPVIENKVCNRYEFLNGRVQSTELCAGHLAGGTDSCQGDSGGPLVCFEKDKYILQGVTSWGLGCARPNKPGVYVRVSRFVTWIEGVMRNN
T10 sequence (P00747 97-580 partner limits assumed): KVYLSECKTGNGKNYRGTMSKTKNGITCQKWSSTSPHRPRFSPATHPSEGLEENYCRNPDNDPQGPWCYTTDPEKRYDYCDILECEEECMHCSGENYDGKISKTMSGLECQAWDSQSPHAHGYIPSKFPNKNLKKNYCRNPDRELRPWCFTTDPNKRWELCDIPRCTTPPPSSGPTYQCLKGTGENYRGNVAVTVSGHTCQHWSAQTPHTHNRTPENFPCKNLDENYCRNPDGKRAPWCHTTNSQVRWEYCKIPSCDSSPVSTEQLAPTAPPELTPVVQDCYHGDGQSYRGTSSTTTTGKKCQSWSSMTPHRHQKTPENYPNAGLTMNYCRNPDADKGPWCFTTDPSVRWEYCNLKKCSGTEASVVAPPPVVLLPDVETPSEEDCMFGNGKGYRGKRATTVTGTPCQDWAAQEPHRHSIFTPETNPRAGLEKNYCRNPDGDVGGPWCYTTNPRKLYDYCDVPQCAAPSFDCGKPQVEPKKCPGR

[13] = Spontaneous hydrolysis in Hepes buffer; format: physicochemical; settings: hepes buffer; 0.1 Hepes, 0.5M NaCl, pH 7.5, 9% Me2SO, 25° C; read-out: t1/2 for spontaneous hydrolysis
Method: ^a Conditions were 0.1 Hepes, 0.5M NaCl, pH 7.5 and 9% Me2 SO at
25° C. Spontaneous hydrolysis rates were measured
spectrophotometrically by monitoring the decrease in absorbance due to th
isocoumarin ring system (wavelength 335-380 nm) using the firstorder rate

## NCCCOc1cc2ccccc2c(=O)o1 [3-(3-aminopropoxy)isocoumarin]
[1]
  kinact/KI: 3 M⁻¹ s⁻¹
[2]
  kinact/KI: 5 M⁻¹ s⁻¹
[3]
  kinact/KI: 30 M⁻¹ s⁻¹
[4]
  kinact/KI: 30 M⁻¹ s⁻¹
[5]
  kinact/KI: 3 M⁻¹ s⁻¹
[6]
  kinact/KI: 1200 M⁻¹ s⁻¹
[7]
  kobs/[I]: 8.1 M⁻¹ s⁻¹
[8]
  kinact/KI: 2.3 M⁻¹ s⁻¹
[9]
  kinact/KI: 47 M⁻¹ s⁻¹
[10]
  kinact/KI: 38 M⁻¹ s⁻¹
[11]
  kinact/KI: 2.8 M⁻¹ s⁻¹
[12]
  kinact/KI: 36 M⁻¹ s⁻¹
[13]
  half-life: 10.1 h

## COc1oc(=O)c2cc(NC(=O)[C@H](C)N)ccc2c1Cl [7-(Alanylamino)-3-Methoxy-4-Chloroisocoumarin Hydrochloride]
[6]
  kinact/KI: 470 M⁻¹ s⁻¹
[8]
  kinact/KI: 1610 M⁻¹ s⁻¹
[9]
  kinact/KI: 13500 M⁻¹ s⁻¹
[11]
  kinact/KI: 20 M⁻¹ s⁻¹
[12]
  kinact/KI: 31 M⁻¹ s⁻¹

## COc1oc(=O)c2cc(NC(=O)CN)ccc2c1Cl [7-(glycylamino)-4-chloro-3-methoxyisocoumarin]
[1]
  kinact/KI: 51.5 M⁻¹ s⁻¹
[6]
  kinact/KI: 32100 M⁻¹ s⁻¹
[8]
  kinact/KI: 1960 M⁻¹ s⁻¹
[9]
  kinact/KI: 7710 M⁻¹ s⁻¹
[11]
  kinact/KI: 4.9 M⁻¹ s⁻¹
[12]
  kinact/KI: 1470 M⁻¹ s⁻¹
